Experimental data published in patent publication US11529362B2, “Physiologically balanced injectable formulations of fosnetupitant” (HELSINN HEALTHCARE SA, priority 2016, dated 2022).
Like-named read-outs stand apart in the source and are kept apart here.

Key:
[1] = presence of EDTA, in proportion to its concentration in solution
[2] = Akynzeo prescribing information, cited from earlier work
[3] = p-Netu solubility studies; assay type: physicochemical; details: in water at acidic pH values less than 7.0
From the text: A study was undertaken to determine the maximum allowable concentration of netupitant in aqueous solutions of p-Netu, above which unacceptable precipitation is observed.

Question: For `O=C([O-])CN(CCN(CC(=O)[O-])CC(=O)O)CC(=O)O.[Na+].[Na+]` [EDTA, Disodium edetate], which “conversion of p-Netu to 14-Netu” value [1] is on record?
Answer: Its value is “reduced”.

Question: Which results are given for `Cc1ccccc1-c1cc(N2CCN(C)CC2)ncc1N(C)C(=O)C(C)(C)c1cc(C(F)(F)F)cc(C(F)(F)F)c1` [netupitant, 2-(3,5-bis(trifluoromethyl)phenyl)-N,2-dimethyl-N-(6-(4-methylpiperazin-1-yl)-4-(o-tolyl)pyridine-3-yl)propanamide]?
Answer: systemic exposure ([2]; dose increase from 10 mg to 300 mg): greater than dose-proportional increase; systemic exposure ([2]; dose increase from 300 mg to 450 mg): dose-proportional increase

Question: For `Cc1ccccc1-c1cc(N2CC[N+](C)(COP(=O)([O-])O)CC2)ncc1N(C)C(=O)C(C)(C)c1cc(C(F)(F)F)cc(C(F)(F)F)c1` [p-Netu, 4-(5-(2-(3,5-bis(trifluoromethyl)phenyl)-N,2-dimethylpropanamido)-4-(o-tolyl)pyridin-2-yl)-1-methyl-1-((phosphonooxy)methyl) piperazin-1-ium], which p-Netu solubility [3] is on record?
Answer: Its p-Netu solubility is “drops significantly”.
